From US7495024B2, “Phenylalkyl N-hydroxyureas for combating atherosclerotic plaque” (VIA Pharmaceuticals, Inc., priority 2006, dated 2009) come the findings set out here.

For the assay, the system named is patients suffering from Acute Coronary Syndrome (ACS). Kind of assay: Randomized, double blind, placebo-controlled study in patients with Acute Coronary Syndrome: biomarkers and MDCT (Example 3). Type of assay: in vivo, human. Particulars: 25, 50 or 100 mg per day oral. Here is the method:
In this study the plaque levels were determined by use of Multidetector (64 slice coronary) Computerized Tomography (MDCT) scan indicative of such plaque in male and female patients suffering from Acute Coronary Syndrome (ACS). The efficacy of this treatment in reducing the effects of cardiovascular disease was determined by the use of biomarkers for this disease. […] At the end of the twenty-four week period the plaque in the patients is analyzed using the Multidetector (64 slice coronary) Computerized Tomography (MDCT) scan. […] Thus, the groups take the following matching capsules at each daily administration of the study medication: • Placebo: two placebo capsules • 25 mg dose: one placebo capsule plus one 25 mg capsule • 50 mg dose: 1 placebo capsule plus one 50 mg capsule • 100 mg dose: two 50 mg capsules The following baseline assessments in each of the patients are made prior to the study: history and complete physical examination; focused physical exam (for signs of bleeding disorder); 12-Lead ECG; measurement of inflammatory biomarkers (LTB4 (ex vivo) measured at trough; LTE4 urine; hsCRP; MPO; MCP1 (CCL2); M-CSF (CSF-1); MIP-2 (Cxcl2); osteopontin (Spp1)); hematology; chemistries; urinalysis; serum pregnancy test for women of childbearing potential; and 64-slice coronary MDCT imaging with contrast. […]

Take `CC(C#Cc1ccc(Cc2ccc(F)cc2)s1)N(O)C(N)=O` (centres unmarked) [compound X, N-[3-[5-[(4-fluorophenyl)methyl]-2-thienyl]-1-methyl-2-propynyl]-N-hydroxyurea]: the “levels of inflammatory biomarkers for cardiovascular disease, percentage of patients vs placebo group” value (12 weeks of dosing) was “decrease in the levels of inflammatory biomarkers”. Also, under “24 weeks of dosing”, the “density and/or plaque volume of coronary noncalcified plaque index lesions by 64-slice MDCT, percentage of patients vs placebo group” value is reported as “a change in the density and/or plaque volume”.
